ChEMBL document CHEMBL3739316, “Novel orally active inhibitors of β-1,3-glucan synthesis derived from enfumafungin” (Bioorg Med Chem Lett, 2015)
In brackets after ≈: the same amount, converted by molar mass.

What was measured:
Beta-1,3-glucan synthase = biological target: T1, Beta-1,3-glucan synthase (Candida albicans, UniProt O13383); test: Displacement of UDP-[3H]glucose from beta-1,3-glucan synthase in Candida albicans MY1055 microsomal membranes incubated for 2 hrs
T1 sequence (O13383 whole entry): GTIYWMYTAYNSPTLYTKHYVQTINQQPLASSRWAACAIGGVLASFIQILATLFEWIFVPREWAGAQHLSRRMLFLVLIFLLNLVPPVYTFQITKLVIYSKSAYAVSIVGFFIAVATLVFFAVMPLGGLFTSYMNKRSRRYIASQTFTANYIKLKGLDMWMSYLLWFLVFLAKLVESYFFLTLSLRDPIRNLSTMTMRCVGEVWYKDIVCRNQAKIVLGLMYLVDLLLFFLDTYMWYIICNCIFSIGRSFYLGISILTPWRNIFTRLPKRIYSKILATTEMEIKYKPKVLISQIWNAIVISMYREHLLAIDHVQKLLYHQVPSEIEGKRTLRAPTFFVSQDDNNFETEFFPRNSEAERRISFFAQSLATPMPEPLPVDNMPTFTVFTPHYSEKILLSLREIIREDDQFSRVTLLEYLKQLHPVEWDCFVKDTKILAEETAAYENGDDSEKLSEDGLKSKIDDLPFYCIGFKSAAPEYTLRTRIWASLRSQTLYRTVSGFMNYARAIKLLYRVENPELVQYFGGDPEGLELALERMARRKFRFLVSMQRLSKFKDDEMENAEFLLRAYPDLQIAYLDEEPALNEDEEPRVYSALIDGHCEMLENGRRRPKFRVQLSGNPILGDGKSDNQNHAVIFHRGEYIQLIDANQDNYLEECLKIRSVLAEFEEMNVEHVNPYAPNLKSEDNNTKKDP

Candida albicans [1] = test: Antifungal activity against Candida albicans MY1055 after 24 hrs by liquid microdilution assay; format: functional; conditions: MY1055, 24 h
Aspergillus fumigatus = test: Antifungal activity against Aspergillus fumigatus MF5668 after 24 hrs by liquid microdilution assay; format: functional; conditions: MF5668, 24 h, read-out: MEC
Candida albicans [2] = test: Antifungal activity against Candida albicans MY1055 after 24 hrs by liquid microdilution assay in presence of human serum; format: functional; conditions: MY1055, 24 h
Mus musculus [3] = test: Dose normalized AUC in orally dosed mouse; format: ADME, organism-based; conditions: in vivo, po
[4] = Oral bioavailability in mouse; format: ADME, organism-based; conditions: in vivo
Candida albicans [5] = test: Antifungal activity against Candida albicans MY1055 in DBA/2 mouse candidiasis model assessed as change in CFU per gram of kidney at 25 mg/kg, po bid after 4 days by Target Organ Kidney Assay relative to sham treated control; format: functional
Candida albicans [6] = test: Antifungal activity against Candida albicans MY1055 in DBA/2 mouse candidiasis model assessed as change in CFU per gram of kidney at 12.5 mg/kg, po bid after 4 days by Target Organ Kidney Assay relative to sham treated control; format: functional
Candida albicans [7] = test: Antifungal activity against Candida albicans MY1055 in DBA/2 mouse candidiasis model assessed as change in CFU per gram of kidney at 6.25 mg/kg, po bid after 4 days by Target Organ Kidney Assay relative to sham treated control; format: functional
Candida albicans [8] = test: Antifungal activity against Candida albicans MY1055 in DBA/2 mouse candidiasis model assessed as change in CFU per gram of kidney at 12.5 mg/kg, ip bid after 7 days by Target Organ Kidney Assay relative to sham treated control; format: functional
Candida albicans [9] = test: Antifungal activity against Candida albicans MY1055 in DBA/2 mouse candidiasis model assessed as change in CFU per gram of kidney at 25 mg/kg, po bid after 7 days by Target Organ Kidney Assay relative to sham treated control; format: functional
Candida albicans [10] = test: Antifungal activity against Candida albicans MY1055 in DBA/2 mouse candidiasis model assessed as change in CFU per gram of kidney at 12.5 mg/kg, po bid after 7 days by Target Organ Kidney Assay relative to sham treated control; format: functional
Candida albicans [11] = test: Antifungal activity against Candida albicans MY1055 in DBA/2 mouse candidiasis model assessed as change in CFU per gram of kidney at 6.25 mg/kg, po bid after 7 days by Target Organ Kidney Assay relative to sham treated control; format: functional
Candida albicans [12] = test: Antifungal activity against Candida albicans MY1055 in DBA/2N mouse candidiasis model assessed as mouse survival at 12.5 mg/kg, ip bid after 7 days by Target Organ Kidney Assay relative to sham treated control; format: functional; conditions: 168 h
Candida albicans [13] = test: Antifungal activity against Candida albicans MY1055 in DBA/2N mouse candidiasis model assessed as mouse survival at 25 mg/kg, po bid after 7 days by Target Organ Kidney Assay relative to sham treated control; format: functional; conditions: 168 h
Candida albicans [14] = test: Antifungal activity against Candida albicans MY1055 in DBA/2N mouse candidiasis model assessed as mouse survival at 12.5 mg/kg, po bid after 7 days by Target Organ Kidney Assay relative to sham treated control; format: functional; conditions: 168 h
Candida albicans [15] = test: Antifungal activity against Candida albicans MY1055 in DBA/2N mouse candidiasis model assessed as mouse survival at 6.25 mg/kg, po bid after 4 days by Target Organ Kidney Assay relative to sham treated control; format: functional; conditions: 96 h
Candida albicans [16] = test: Antifungal activity against Candida albicans MY1055 in DBA/2N mouse candidiasis model assessed as reduction of fungal burden after 7 days; format: functional; conditions: MY1055, 168 h
[17] = AUC (0 to 24 hrs) in DBA/2J mouse at 10 mg/kg, po; format: ADME, organism-based; design: dose 10 mg/kg, time < 24 hr, route oral; conditions: in vivo
Mus musculus [18] = test: AUC (0 to 24 hrs) in DBA/2J mouse assessed as metabolite 13c at 10 mg/kg, po; format: ADME, organism-based; design: dose 10 mg/kg, time < 24 hr, route oral; conditions: in vivo
Mus musculus [19] = test: AUC (0 to 24 hrs) in DBA/2J mouse assessed as total metabolites at 10 mg/kg, po; format: ADME, organism-based; conditions: in vivo
Mus musculus [20] = test: Drug level in DBA/2J mouse treated with 13f at 10 mg/kg, po; format: ADME, organism-based; conditions: in vivo
Rattus norvegicus = test: Dose normalized AUC in orally dosed rat; format: ADME, organism-based; conditions: in vivo, po
[21] = Oral bioavailability in rat; format: ADME, organism-based; conditions: in vivo
Candida albicans [22] = test: Antifungal activity against Candida albicans MY1055 in DBA/2 mouse candidiasis model assessed as change in CFU per gram of kidney at 25 mg/kg, ip bid after 4 days by Target Organ Kidney Assay relative to sham treated control; format: functional
Candida albicans [23] = test: Antifungal activity against Candida albicans MY1055 in DBA/2 mouse candidiasis model assessed as change in CFU per gram of kidney at 12.5 mg/kg, ip bid after 4 days by Target Organ Kidney Assay relative to sham treated control; format: functional
Candida albicans [24] = test: Antifungal activity against Candida albicans MY1055 in DBA/2 mouse candidiasis model assessed as change in CFU per gram of kidney at 6.25 mg/kg, ip bid after 4 days by Target Organ Kidney Assay relative to sham treated control; format: functional

| SMILES | IC50 (Beta-1,3-glucan synthase) [nM] | MIC (Candida albicans [1]) [µg/mL] | minimal effective concentration (Aspergillus fumigatus) [µg/mL] | MIC (Candida albicans [2]) [µg/mL] | AUC/dose (Mus musculus [3]) [µM·kg·h/mg] | bioavailability [4] [%] | Activity (Candida albicans [5]) [deltalog10CFU] | Activity (Candida albicans [6]) [deltalog10CFU] | Activity (Candida albicans [7]) [deltalog10CFU] | Activity (Candida albicans [8]) [deltalog10CFU] | Activity (Candida albicans [9]) [deltalog10CFU] | Activity (Candida albicans [10]) [deltalog10CFU] | Activity (Candida albicans [11]) [deltalog10CFU] | survival at 12.5 mg/kg (Candida albicans [12]) [%] | survival at 25 mg/kg (Candida albicans [13]) [%] | survival at 12.5 mg/kg (Candida albicans [14]) [%] | survival at 6.25 mg/kg (Candida albicans [15]) [%] | ED99 (Candida albicans [16]) [mg/kg] | AUC(0-t) at 24 h [17] [µM·h] | AUC (Mus musculus [18]) [µM·h] | further results |
| --- | --- | --- | --- | --- | --- | --- | --- | --- | --- | --- | --- | --- | --- | --- | --- | --- | --- | --- | --- | --- | --- |
| CCCN[C@@](C)(CO[C@H]1[C@H](n2nnc(N)n2)C[C@@]23COCC1(C)[C@@H]2CC[C@H]1C3=CC[C@@]2(C)[C@H](C(=O)O)[C@@](C)([C@H](C)C(C)C)CC[C@]12C)C(C)C | 11.5 | 0.06 (≈ 0.0861 µM) | < 0.03 | 16 | 0.35 | 25 | -3 | -2.4 | -1.1 | -2.98 | -2.9 | -1.53 | -2.04 | 100 | 100 | 100 | 40 | 10 | 3.13 | 0.36 | Drug uptake (Mus musculus [19]): 10.3% |
| CN[C@@](C)(CO[C@H]1[C@H](n2nnc(N)n2)C[C@@]23COCC1(C)[C@@H]2CC[C@H]1C3=CC[C@@]2(C)[C@H](C(=O)O)[C@@](C)([C@H](C)C(C)C)CC[C@]12C)C(C)C | 2.99 | < 0.03 | < 0.03 | 4 | 0.12 | 9 | -2.5 | -1.9 | -1.5 | -3.89 | -2.54 | 0.89 | -0.61 | 100 | 100 | 20 | 20 | 19 | 1.06 | 0.005 | Drug uptake (Mus musculus [19]): 0.5%; Drug metabolism (Mus musculus [20]): metabolite_detected |
| CC(=O)O[C@@H]1C[C@@]23COCC(C)([C@H]1O[C@@H]1O[C@H](CO)[C@@H](O)[C@H](O)[C@H]1O)[C@@H]2CC[C@H]1C3=CC[C@@]2(C)[C@H](C(=O)O)[C@@](C)([C@H](C)C(C)C)CC[C@]12C | 86.6 | 0.25 (≈ 0.361 µM) | < 0.03 | 8 |  |  |  |  |  |  |  |  |  |  |  |  |  |  |  |  | AUC/dose (Rattus norvegicus): 0.01 µM·kg·h/mg; bioavailability [21]: 1% |
| CC(=O)O[C@@H]1C[C@@]23COCC(C)([C@H]1OCCN)[C@@H]2CC[C@H]1C3=CC[C@@]2(C)[C@H](C(=O)O)[C@@](C)([C@H](C)C(C)C)CC[C@]12C | 81.9 | 1 (≈ 1.74 µM) | < 0.03 | 32 | 0.54 | 24 |  |  |  |  |  |  |  |  |  |  |  |  |  |  | Activity (Candida albicans [22]): -0.7 deltalog10CFU; Activity (Candida albicans [23]): -0.4 deltalog10CFU; Activity (Candida albicans [24]): -0.3 deltalog10CFU |
| CCN[C@@](C)(CO[C@H]1[C@H](n2nnc(N)n2)C[C@@]23COCC1(C)[C@@H]2CC[C@H]1C3=CC[C@@]2(C)[C@H](C(=O)O)[C@@](C)([C@H](C)C(C)C)CC[C@]12C)C(C)C | 7.32 | 0.06 (≈ 0.0878 µM) | < 0.03 | 8 | 0.44 | 11 | -2.8 | -2.6 | -0.7 | -3.26 | -2.8 | -2.54 | 0.72 | 100 | 100 | 60 | 20 | 13 | 4.22 | 0.29 | Drug uptake (Mus musculus [19]): 6.4% |
| CC(C)[C@@H](C)[C@@]1(C)CC[C@]2(C)[C@H]3CC[C@H]4C5(C)COC[C@@]4(C[C@@H](n4nnc(N)n4)[C@@H]5OC[C@](C)(N)C(C)C)C3=CC[C@@]2(C)[C@@H]1C(=O)O | 3.05 | < 0.03 | < 0.03 | 2 | 0.14 | 14 | -2.2 | -0.3 | -0.1 |  |  |  |  |  |  |  |  |  |  |  | Drug metabolism (Mus musculus [20]): metabolite_detected |
